Where two headings read alike, the source gives them in different places.

The record followed here is US20240124444A1 (Celgene Corporation, priority 2020, published 2024).

For the assay, the system named is C. parvum strain UGA1. The experiment in a line: C. parvum growth inhibition assay (Nluc luminescence in HCT-8 cells). Format: cell-based, Cryptosporidium parvum. The conditions noted are these: Cryptosporidium parvum; for inhibition at 1 µM / inhibition at 10 µM: HCT-8; for inhibition at 1 µM: read-out: % inh @ 1 uM C. parvum; for inhibition at 10 µM: read-out: % inh @ 10 uM C. parvum; for EC50: HCT-8, 48 h, C. parvum growth inhibition in HCT-8 cells, 48 hours, 6 concentrations 10-0.04 μM. As for the experimental part:
C. parvum GROWTH INHIBITION ASSAYS
C. parvum growth inhibition was performed as described in Hulverson M A, Vinayak S, Choi R, Schaefer D A, Castellanos-Gonzalez A, Vidadala R S R, Brooks C F, Herbert G T, Betzer D P, Whitman G R, Sparks H N, Arnold S L M, Rivas K L, Barrett L K, White A C Jr, Maly D J, Riggs M W, Striepen B, Van Voorhis W C, Ojo K K. Bumped-Kinase Inhibitors for Cryptosporidiosis Therapy. J Infect Dis. 2017 Apr. 15; 215(8):1275-1284.
C. parvum strain UGA1 […] (ATCC, Manassas, VA) were prepared as described below. HCT-8 cells were inoculated onto 96-well plates were grown for 48 hours to 90%-100% confluence. C. parvum oocysts were then incubated for 10 minutes in 10% bleach at room temperature and washed with Dulbecco's phosphate-buffered saline. One thousand oocysts per well were applied to plates with Roswell Park Memorial Institute 1640 (RPMI) medium supplemented with 10% horse serum and 1% penicillin/streptomycin. Compounds of Formula (I), Formula (II), and Formula (III) were added to the plates at different concentrations and the plates were incubated for 48 hours. Following the incubation, the monolayers were lysed for 1 hour before a luciferase reagent was added, and relative luminescence units were determined.
For certain compounds of Formula I, Formula II, and Formula III, EC50 values were calculated using curves calculated from Prism after analysis of C. parvum growth inhibition at 6 different concentrations: 10, 3.33, 1.11, 0.37, 0.12, and 0.04 μM. […] For certain compounds of Formula I, Formula II, and Formula III, single point inhibition values of 0-33% (activity level D), between 33% and 66% (activity level E), and between 67% and 100% (activity level F) are also shown in Table 1 below.

[1] abbreviates: single point inhibition at 1 uM.
Setting [2] is: single point inhibition at 10 uM.
The mark [3] stands for this setting: single point inhibition @ 10 uM.

With `O=C(Nc1cc2[nH]c(-c3ccncc3)cc2cn1)c1ccccc1` [Example 277, N-(2-(pyridin-4-yl)-1H-pyrrolo[3,2-c]pyridin-6-yl)benzamide], under setting [1], the inhibition at 1 µM fell in the range of 0 to 33%. Also, under setting [2], the inhibition at 10 µM lay in the range of 0 to 33%.
In general, EC50 refers to the concentration at which the effect is half-maximal. The low end stands for higher potency in that assay, the high end for lower potency in that assay. As to `FC(F)(F)c1c[nH]c2cc(NC3CCOCC3)ncc12` [Example 376, N-(tetrahydro-2H-pyran-4-yl)-3-(trifluoromethyl)-1H-pyrrolo[3,2-c]pyridin-6-amine], the EC50 was more than 1 µM.
As for `COc1cccc(Nc2cc3[nH]c(-c4cncn4C)cc3cn2)c1` [Example 204, N-(3-methoxyphenyl)-2-(1-methyl-1H-imidazol-5-yl)-1H-pyrrolo[3,2-c]pyridin-6-amine], the inhibition at 1 µM under setting [1] lay in the range of 33 to 66%. The inhibition at 10 µM under setting [2] was in the range of 67 to 100%.
Consider `Cn1ccc(C(=O)Nc2cc3[nH]c(-c4ccncc4)cc3cn2)n1` [Example 238, 1-methyl-N-(2-(pyridin-4-yl)-1H-pyrrolo[3,2-c]pyridin-6-yl)-1H-pyrazole-3-carboxamide], for which the inhibition at 1 µM under setting [1] lay within 0 to 33%. The inhibition at 10 µM under setting [2] lay in the range of 0 to 33%.
For `Cn1cc(C(=O)Nc2cc3c(cn2)cc(-c2ccnc(NCC4CC4)n2)n3C)cn1` [Example 159, N-(2-(2-(cyclopropylmethylamino)pyrimidin-4-yl)-1-methyl-1H-pyrrolo[3,2-c]pyridin-6-yl)-1-methyl-1H-pyrazole-4-carboxamide], the inhibition at 1 µM (single point inhibition @ 1 uM) is 0 to 33%. Also, the inhibition at 10 µM under setting [3] lay within 67 to 100%.
Regarding `Cn1cc(C(=O)Nc2cc3[nH]c(C4CC4)cc3cn2)cn1` [Example 88, N-(2-cyclopropyl-1H-pyrrolo[3,2-c]pyridin-6-yl)-1-methyl-1H-pyrazole-4-carboxamide], the EC50 was more than 1 µM. For the same compound, under “single point inhibition @ 1 uM”, the inhibition at 1 µM was in the range of 33 to 66%. The inhibition at 10 µM under setting [3] lay in the range of 0 to 33%.
For the compound `CC(C)n1cc(C(=O)Nc2cc3[nH]c(-c4ccnc(OC(C)C(F)(F)F)n4)cc3cn2)cn1` (centres unmarked) [Example 149, 1-isopropyl-N-(2-(2-(1,1,1-trifluoropropan-2-yloxy)pyrimidin-4-yl)-1H-pyrrolo[3,2-c]pyridin-6-yl)-1H-pyrazole-4-carboxamide], where the note is “single point inhibition @ 1 uM”, the inhibition at 1 µM was 0 to 33%. Further, under setting [3], the inhibition at 10 µM was 67 to 100%.
For the compound `Cc1nn(C)cc1C(=O)Nc1cc2[nH]c(-c3ccnc(OC(C)C(F)(F)F)n3)cc2cn1` (stereo in doubt) [Example 136, (S)-1,3-dimethyl-N-(2-(2-(1,1,1-trifluoropropan-2-yloxy)pyrimidin-4-yl)-1H-pyrrolo[3,2-c]pyridin-6-yl)-1H-pyraozle-4-carboxamide], the inhibition at 1 µM (single point inhibition @ 1 uM) lay in the range of 0 to 33%. Further, under setting [3], the inhibition at 10 µM was in the range of 67 to 100%.
`CN(CC(F)(F)F)c1cc(-c2cc3cnc(NC4CCOCC4)cc3[nH]2)ncn1` [Example 394, 2-(6-(methyl(2,2,2-trifluoroethyl)amino)pyrimidin-4-yl)-N-(tetrahydro-2H-pyran-4-yl)-1H-pyrrolo[3,2-c]pyridin-6-amine] returned an EC50 of more than 1 µM.
In turn, `Cc1cc(-c2cc3cnc(NC(=O)CN(C)C)cc3n2C)ncn1` [Example 127, 2-(dimethylamino)-N-(1-methyl-2-(6-methylpyrimidin-4-yl)-1H-pyrrolo[3,2-c]pyridin-6-yl)acetamide] registered an EC50 of more than 1 µM.
`Cc1cc(-c2cc3cnc(N)cc3[nH]2)ccn1` [Example 81, 2-(2-methylpyridin-4-yl)-1H-pyrrolo[3,2-c]pyridin-6-amine] registered an EC50 of more than 1 µM. Further, under “single point inhibition @ 1 uM”, the inhibition at 1 µM lay in the range of 0 to 33%. Further, under setting [3], the inhibition at 10 µM fell in the range of 33 to 66%.
For `Cn1cc(C(=O)Nc2cc3[nH]c(-c4ccnc(OC5CC(O)C5)n4)cc3cn2)cn1` (centres unmarked) [Example 324, N-(2-(2-(3-hydroxycyclobutoxy)pyrimidin-4-yl)-1H-pyrrolo[3,2-c]pyridin-6-yl)-1-methyl-1H-pyrazole-4-carboxamide], the inhibition at 1 µM under setting [1] was in the range of 0 to 33%. Besides, the inhibition at 10 µM under setting [2] fell in the range of 0 to 33%.
